Reference: EPA's ToxValDB 9.5 (doi:10.2903/j.efsa.2011.1958)
In brackets after ≈: the same amount, converted by molar mass. Several values for one entry are separate records, joined by “and”; a condition that tells them apart may be missing. Identical values can stand only once.

What was measured:
[1] = test system: Colinus virginianus; details: acute, oral, mortality
[2] = test system: Anas platyrhynchos; details: acute; oral; unspecified; mortality
[3] = test system: Pimephales promelas; details: chronic/long-term; duration: 28 days; growth
[4] = test system: Tagia sp.; details: acute; duration: 14 days; mortality
[5] = test system: Oncorhynchus mykiss; details: acute; duration: 96 hours; mortality
[6] = test system: Rattus norvegicus
[7] = test system: Landoltia sp.; details: acute; duration: 14 days; growth
[8] = test system: Daphnia magna; details: chronic/long-term; duration: 21 days; reproduction
[9] = test system: Apis mellifera; details: acute; duration: 48 hours; oral; unspecified; mortality
[10] = test system: Aphidius rhopalosiphi; experiment: LR50; higher = less toxic; details: acute; duration: 7 days; reproduction
[11] = test system: Typhlodromus pyri; experiment: LR50; higher = less toxic; details: acute; duration: 48 hours; reproduction

## CN(C)C(=O)Nc1cccc(C(F)(F)F)c1 [Fluometuron]
[1]; diet
  LC50: > 1600 mg/kg and 4310 mg/kg
[1]
  LD50: > 2150 mg/kg
[2]
  LD50: 2970 mg/kg
[3]
  NOEC: 3.1 mg/L
[4]
  LC50: 1000 mg/kg
[5]
  LC50: 30 µg/mL (≈ 129 µM)
[6]; acute, oral, mortality
  LD50: > 5000 mg/kg
[6]; chronic, duration: 104 weeks, hematological
  NOAEL: 0.553 mg/kg-day
[6]; developmental, development
  NOEL: 24 mg/kg-day
[6]; reproduction developmental, other
  NOAEL: 0.8 mg/kg-day
[7]
  NOEC: 0.185 mg/L
[8]
  NOEC: 6.6 mg/L
[9]
  LD50: > 34 µg/piece
[10]
  LR50: 398 g/ha
[11]
  LR50: 28.9 g/ha
